Measurements as given in ChEMBL document CHEMBL3045439, “Isoforms of the heteropteran Nezara viridula ecdysone receptor: protein characterisation, RH5992 insecticide binding and homology modelling” (Pest Manag Sci, 2011).

Key:
Ecdysone receptor [1] = target: T1, Ecdysone receptor (Drosophila melanogaster, UniProt P20153+P34021); experiment: Binding affinity to Drosophila melanogaster EcR; assay type: protein-complex assay
T1 sequence (P34021 whole entry): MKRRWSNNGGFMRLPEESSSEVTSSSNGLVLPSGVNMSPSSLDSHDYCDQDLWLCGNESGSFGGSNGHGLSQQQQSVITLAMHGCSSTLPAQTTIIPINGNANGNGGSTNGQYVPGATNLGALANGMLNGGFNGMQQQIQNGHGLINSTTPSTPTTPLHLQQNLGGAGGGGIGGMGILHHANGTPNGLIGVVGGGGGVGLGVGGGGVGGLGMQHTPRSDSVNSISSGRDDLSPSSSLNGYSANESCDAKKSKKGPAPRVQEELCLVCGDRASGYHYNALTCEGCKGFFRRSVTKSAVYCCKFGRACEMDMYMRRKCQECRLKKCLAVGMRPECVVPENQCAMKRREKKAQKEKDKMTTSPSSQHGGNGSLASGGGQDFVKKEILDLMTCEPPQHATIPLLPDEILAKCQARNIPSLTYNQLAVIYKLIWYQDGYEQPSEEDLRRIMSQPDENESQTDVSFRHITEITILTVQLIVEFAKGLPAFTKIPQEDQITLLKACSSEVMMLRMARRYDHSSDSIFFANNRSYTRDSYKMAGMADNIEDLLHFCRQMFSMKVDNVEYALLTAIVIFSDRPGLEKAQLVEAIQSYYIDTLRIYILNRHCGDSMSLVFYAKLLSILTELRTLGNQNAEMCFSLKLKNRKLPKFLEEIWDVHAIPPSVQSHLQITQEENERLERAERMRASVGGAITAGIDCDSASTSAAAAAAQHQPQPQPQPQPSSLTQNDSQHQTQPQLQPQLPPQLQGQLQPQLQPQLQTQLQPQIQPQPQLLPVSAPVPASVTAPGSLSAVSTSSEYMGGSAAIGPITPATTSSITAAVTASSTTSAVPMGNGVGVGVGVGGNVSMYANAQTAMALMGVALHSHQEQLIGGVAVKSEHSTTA
T1 sequence (P20153 whole entry): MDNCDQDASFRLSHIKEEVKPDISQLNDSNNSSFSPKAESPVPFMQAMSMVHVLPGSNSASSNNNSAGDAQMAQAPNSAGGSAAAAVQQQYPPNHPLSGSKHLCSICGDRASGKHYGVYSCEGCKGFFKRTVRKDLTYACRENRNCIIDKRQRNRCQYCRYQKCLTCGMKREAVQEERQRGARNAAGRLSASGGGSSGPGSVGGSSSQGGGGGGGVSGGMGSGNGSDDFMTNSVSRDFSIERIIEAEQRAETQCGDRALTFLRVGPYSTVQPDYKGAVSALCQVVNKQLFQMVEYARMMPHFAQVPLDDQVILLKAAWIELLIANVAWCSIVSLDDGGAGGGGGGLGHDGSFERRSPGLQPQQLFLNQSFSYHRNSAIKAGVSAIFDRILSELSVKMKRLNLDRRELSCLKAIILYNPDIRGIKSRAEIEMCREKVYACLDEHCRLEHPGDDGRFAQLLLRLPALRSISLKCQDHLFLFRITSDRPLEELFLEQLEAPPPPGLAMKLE

Ecdysone receptor [2] = target: T2, Ecdysone receptor (Choristoneura fumiferana, UniProt O76202+O77240); experiment: Binding affinity to Choristoneura fumiferana EcR; assay type: protein-complex assay
T2 sequence (O77240 whole entry): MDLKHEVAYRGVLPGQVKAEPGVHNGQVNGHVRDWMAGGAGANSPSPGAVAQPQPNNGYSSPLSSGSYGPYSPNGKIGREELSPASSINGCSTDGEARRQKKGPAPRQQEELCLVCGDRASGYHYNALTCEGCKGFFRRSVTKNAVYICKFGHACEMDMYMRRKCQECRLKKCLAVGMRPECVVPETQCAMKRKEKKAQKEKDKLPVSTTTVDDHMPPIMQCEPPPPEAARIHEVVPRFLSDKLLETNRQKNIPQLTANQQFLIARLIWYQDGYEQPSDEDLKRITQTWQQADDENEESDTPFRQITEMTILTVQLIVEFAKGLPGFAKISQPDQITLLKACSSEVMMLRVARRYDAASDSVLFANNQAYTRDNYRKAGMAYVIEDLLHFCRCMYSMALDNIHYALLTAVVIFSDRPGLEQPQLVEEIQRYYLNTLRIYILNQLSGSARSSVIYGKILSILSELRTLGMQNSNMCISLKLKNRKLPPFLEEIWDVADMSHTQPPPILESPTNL
T2 sequence (O76202 whole entry): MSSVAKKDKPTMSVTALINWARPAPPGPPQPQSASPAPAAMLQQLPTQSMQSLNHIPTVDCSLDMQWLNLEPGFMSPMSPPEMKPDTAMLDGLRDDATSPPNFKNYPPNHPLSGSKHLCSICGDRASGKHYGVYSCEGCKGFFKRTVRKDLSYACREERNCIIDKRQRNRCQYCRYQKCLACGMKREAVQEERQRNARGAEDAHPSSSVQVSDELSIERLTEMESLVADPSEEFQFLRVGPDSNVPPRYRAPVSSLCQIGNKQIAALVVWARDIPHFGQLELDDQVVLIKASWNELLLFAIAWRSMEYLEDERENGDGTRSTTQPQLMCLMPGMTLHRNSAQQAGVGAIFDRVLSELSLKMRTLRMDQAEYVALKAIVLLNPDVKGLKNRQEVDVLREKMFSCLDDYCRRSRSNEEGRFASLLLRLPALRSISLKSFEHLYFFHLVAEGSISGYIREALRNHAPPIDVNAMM

Row | Structure (SMILES) | IC50 (Ecdysone receptor [1]) [nM] | Ki (Ecdysone receptor [1]) [nM] | Ki (Ecdysone receptor [2]) [nM]
1 | CC(C)(O)CC[C@@H](O)[C@](C)(O)[C@H]1CC[C@@]2(O)C3=CC(=O)[C@@H]4C[C@@H](O)[C@@H](O)C[C@]4(C)[C@H]3CC[C@]12C [20-HYDROXYECDYSONE] | 45.7 |  | 
2 | CCc1ccc(C(=O)NN(C(=O)c2cc(C)cc(C)c2)C(C)(C)C)cc1 [TEBUFENOZIDE] |  | 251 | 0.501
